The text below walks through data of ChEMBL document CHEMBL4483862, “Open-source discovery of chemical leads for next-generation chemoprotective antimalarials” (2018).

This test has as its system Plasmodium berghei. The experiment in a line: Luciferase/luciferin-expressing antifolate-resistant parasites were used to infect a culture of HepG2 cells that were pre-incubated with compounds. Infected hepatocytes emit light due to the luciferase reaction. Assay results are presented as the percent inhibition of light emission compared to control. […]. Conditions: sporozoite; for IC90: read-out: LUCIFERASE INFECTION ASSAY - IC90. The class given is functional.

[1] abbreviates: read-out: LUCIFERASE INFECTION ASSAY - IC50.

Structures are written as SMILES.

For the compound `CCCc1ccc(-c2nc(-c3ccccc3)no2)cc1`, the IC90 is 0.0999 µM. Also, under “FFLUC_HILL_SLOPE 35.1, FFLUC_R_SQUARED 0.438, PBLUC_HILL_SLOPE 1.27, PBLUC_R_SQUARED 0.957, read-out: LUCIFERASE INFECTION ASSAY - IC50”, the concentration for half-maximal inhibition (IC50) stood at 0.0177 µM.

On to `CCN(CC)c1nc2c3c(nc4c(c3c1C#N)CC(c1ccccc1)O4)NC1(CCCCC1)N2` (centres undefined), for which the 90% effect concentration (IC90) was over 10 µM. In addition, under “FFLUC_HILL_SLOPE 304, FFLUC_R_SQUARED 0.442, PBLUC_HILL_SLOPE 2.01, PBLUC_R_SQUARED 0.722, read-out: LUCIFERASE INFECTION ASSAY - IC50”, the IC50 is 6.1 µM.

Turning to `COc1ccc(-c2nc3ccccc3n2-c2cc(-c3ccccc3)nn2-c2ccccc2)cc1`, the IC90 was found to be 8.43 µM. The IC50 (FFLUC_HILL_SLOPE 12.7, FFLUC_R_SQUARED 0.403, HEPG2TOX_HILL_SLOPE 1.43, HEPG2TOX_R_SQUARED 0.399, PBLUC_HILL_SLOPE 4.08, PBLUC_R_SQUARED 0.666, read-out: LUCIFERASE INFECTION ASSAY - IC50) was found to be 4.92 µM.

Regarding `COCCn1c(C)cc(C(=O)CSc2nnc(C)s2)c1C`, the 90% effect concentration (IC90) is over 10.1 µM. Besides, for the setting “FFLUC_HILL_SLOPE 1.54, FFLUC_R_SQUARED 0.663, PBLUC_HILL_SLOPE 0.577, PBLUC_R_SQUARED 0.574, read-out: LUCIFERASE INFECTION ASSAY - IC50”, the IC50 was found to be 0.418 µM.

`CSc1ccc(C2=NNC(=NC3CC3)SC2)cc1`: the IC90 was over 10 µM. In addition, for the setting “FFLUC_HILL_SLOPE 0.857, FFLUC_R_SQUARED 0.948, PBLUC_HILL_SLOPE 0.604, PBLUC_R_SQUARED 0.771, read-out: LUCIFERASE INFECTION ASSAY - IC50”, the IC50 came to 0.467 µM.

`CSc1nccc(-c2sc(SC)c3c2CC(C)(C)CC3=O)n1`: the IC90 was over 9.41 µM. In addition, the IC50 under setting [1] was over 9.41 µM.

As to `Cc1cc(/C=C(\C#N)C(=O)OCc2ccccn2)c(C)n1CC(C)C`, the IC90 is over 10 µM. Further, the concentration for half-maximal inhibition (IC50) (PBLUC_HILL_SLOPE 0.483, PBLUC_R_SQUARED 0.335, read-out: LUCIFERASE INFECTION ASSAY - IC50) stood at 6.62 µM.

For the compound `Oc1c(C(c2ccc(C(F)(F)F)cc2)N2CCCC2)cc(Cl)c2cccnc12` (centres undefined), the concentration for an effect of 90% (IC90) turned out to be 2.26 µM. For the setting “FFLUC_HILL_SLOPE 12.3, FFLUC_R_SQUARED 0.824, HEPG2TOX_HILL_SLOPE 1.2, HEPG2TOX_R_SQUARED 0.387, PBLUC_HILL_SLOPE 2.74, PBLUC_R_SQUARED 0.879, read-out: LUCIFERASE INFECTION ASSAY - IC50”, the IC50 came to 1.01 µM.

On to `Cc1[nH]c(C(=O)N2CCN(CC3CCCCC3)CC2)c(C)c1C(=O)OC(C)C`, for which the IC90 was over 10 µM. For the same compound, the IC50 under setting [1] is over 10 µM.

For `Cc1nc(Nc2ccc(Cl)cc2)sc1C(=O)Nc1ccccc1`, the IC90 is over 10 µM. Besides, the IC50 under setting [1] is over 10 µM.

Turning to `CN(C)CCNC(=O)c1ccc(-c2cn3c(-c4ccc5c(c4)OCO5)cnc3cn2)cc1`, the IC90 was over 7.68 µM. The IC50 (PBLUC_HILL_SLOPE 12, PBLUC_R_SQUARED 0.209, read-out: LUCIFERASE INFECTION ASSAY - IC50) is over 7.68 µM.

`Cc1cc(C(=O)Cn2c(Cl)nc3c2c(=O)n(C)c(=O)n3C)c(C)n1-c1ccc2c(c1)OCCO2`: the IC90 is over 10 µM. For the same compound, for the setting “HEPG2TOX_HILL_SLOPE 4.07, HEPG2TOX_R_SQUARED 0.354, PBLUC_HILL_SLOPE 24.1, PBLUC_R_SQUARED 0.351, read-out: LUCIFERASE INFECTION ASSAY - IC50”, the concentration for half-maximal inhibition (IC50) came out at 9.79 µM.

With `Cc1ccc(C2Nc3ccccc3C(=O)N2C(C)c2ccccc2)o1` (centres undefined), the IC90 was over 10 µM. The IC50 under setting [1] was over 10 µM.

`COc1cc(CN(C)C(=O)c2ccc3c(c2)S(=O)(=O)N=C2CCCCCN23)ccc1OC(F)F`: the IC90 is over 10 µM. Besides, the IC50 (HEPG2TOX_HILL_SLOPE 4.17, HEPG2TOX_R_SQUARED 0.672, PBLUC_HILL_SLOPE 0.764, PBLUC_R_SQUARED 0.62, read-out: LUCIFERASE INFECTION ASSAY - IC50) was 1.97 µM.

As for `FC(F)(F)Oc1cccc(-c2nc3ccnc(Nc4ccccc4)c3[nH]2)c1`, the 90% effect concentration (IC90) is over 10 µM. Also, the IC50 (HEPG2TOX_HILL_SLOPE 7.94, HEPG2TOX_R_SQUARED 0.491, PBLUC_HILL_SLOPE 12.6, PBLUC_R_SQUARED 0.533, read-out: LUCIFERASE INFECTION ASSAY - IC50) stood at 8.84 µM.

As to `COc1cncc(-c2cncc(Nc3ccc(C(C)C)cc3)c2)c1`, the concentration for an effect of 90% (IC90) is 5.21 µM. Also, under “PBLUC_HILL_SLOPE 9.07, PBLUC_R_SQUARED 0.477, read-out: LUCIFERASE INFECTION ASSAY - IC50”, the IC50 turned out to be 4.09 µM.

Regarding `O=S(=O)(Nc1cc(C(F)(F)F)cc(C(F)(F)F)c1)c1cc(C(F)(F)F)cc(C(F)(F)F)c1`, the concentration for an effect of 90% (IC90) was determined as 4.66 µM. In addition, the IC50 (FFLUC_HILL_SLOPE 10.6, FFLUC_R_SQUARED 0.544, PBLUC_HILL_SLOPE 1.62, PBLUC_R_SQUARED 0.523, read-out: LUCIFERASE INFECTION ASSAY - IC50) was 1.2 µM.

Regarding `O=C1C=CC(=O)N1Cc1cccs1`, the IC90 came to 7.49 µM. Also, the IC50 (HEPG2TOX_HILL_SLOPE 35.1, HEPG2TOX_R_SQUARED 0.828, PBLUC_HILL_SLOPE 12.7, PBLUC_R_SQUARED 0.168, read-out: LUCIFERASE INFECTION ASSAY - IC50) was determined as 6.3 µM.

For `COCc1ccc(C(=O)Nc2ccc(-n3cnc4ccccc43)nc2)cc1`, the IC90 is over 10 µM. Besides, under “HEPG2TOX_HILL_SLOPE 7.46, HEPG2TOX_R_SQUARED 0.472, PBLUC_HILL_SLOPE 11.4, PBLUC_R_SQUARED 0.343, read-out: LUCIFERASE INFECTION ASSAY - IC50”, the IC50 is 9.69 µM.

As to `Cc1onc(-c2ccc(Cl)cc2Cl)c1-c1csc(Nc2ccc(Cl)cc2)n1`, the IC90 was over 7.56 µM. In addition, the IC50 (FFLUC_HILL_SLOPE 2.37, FFLUC_R_SQUARED 0.46, PBLUC_HILL_SLOPE 2.86, PBLUC_R_SQUARED 0.233, read-out: LUCIFERASE INFECTION ASSAY - IC50) is 6.39 µM.

With `Cc1sc2ncn3nc(-c4ccc(=O)[nH]n4)nc3c2c1C`, the IC90 was over 11.1 µM. The IC50 under setting [1] was over 11.1 µM.

For `CCC(C)NC(=O)c1c(NC(=O)c2ccc(F)cc2F)nc2ccc(C)cn12` (centres undefined), the IC90 was found to be 3.23 µM. Also, the IC50 under setting [1] was found to be 2.9 µM.

For `CC(C)=CCn1c2ccc(NC(=O)OCCF)cc2c(=O)n1C`, the IC90 is over 10.3 µM. Besides, the IC50 under setting [1] is over 10.3 µM.

With `Cc1cc(C(=O)CN(C)S(=O)(=O)c2cccs2)c(C)n1-c1ccccn1`, the IC90 is over 10 µM. The IC50 (PBLUC_HILL_SLOPE 0.948, PBLUC_R_SQUARED 0.586, read-out: LUCIFERASE INFECTION ASSAY - IC50) is 2.02 µM.

As for `O=C(NCC1COc2ccccc2O1)c1cc2ccccc2cc1O` (centres undefined), the IC90 is over 10 µM. For the same compound, under setting [1], the IC50 was over 10 µM.

For the compound `CC(=O)c1cccc(-c2ccnc3c2CC(C(=O)NCCc2ccccc2)O3)c1` (centres undefined), the IC90 turned out to be 5.14 µM. In addition, the IC50 (HEPG2TOX_HILL_SLOPE 2.91, HEPG2TOX_R_SQUARED 0.95, PBLUC_HILL_SLOPE 2.2, PBLUC_R_SQUARED 0.478, read-out: LUCIFERASE INFECTION ASSAY - IC50) is 1.89 µM.

For `O=C1C(=O)N(Cc2ccncc2)c2ccccc21`, the IC90 was over 13.9 µM. For the same compound, the IC50 (PBLUC_HILL_SLOPE 4.07, PBLUC_R_SQUARED 0.778, read-out: LUCIFERASE INFECTION ASSAY - IC50) stood at 8.1 µM.

For the compound `Cc1c(C)n(CCCO)c2ncn3nc(-c4ccc(Cl)cc4)nc3c12`, the IC90 is over 9.27 µM. Moreover, the IC50 under setting [1] is over 9.27 µM.

As for `CCC(C)(C)c1ccc(OCC(=O)Nc2cccc(-c3nc(C)sc3C(=O)Nc3cc(Cl)ccc3Cl)c2)c(C(C)(C)CC)c1`, the IC90 was over 10 µM. The IC50 under setting [1] was over 10 µM.

For `O=C(c1cnc(Nc2cccc(C(F)(F)F)c2)[nH]1)c1ccccc1O`, the IC90 turned out to be 7.03 µM. Besides, the IC50 (PBLUC_HILL_SLOPE 5.05, PBLUC_R_SQUARED 0.685, read-out: LUCIFERASE INFECTION ASSAY - IC50) stood at 4.55 µM.

As for `NS(=O)(=O)c1ccc(N2CCOCC2)c(C(=O)NCCOc2ccc3ccccc3c2)c1`, the concentration for an effect of 90% (IC90) was over 10 µM. The IC50 under setting [1] was over 10 µM.

For `CCOC(=O)c1c(C)c(C)n(Cc2ccccc2)c1NC(=O)c1ccccc1`, the IC90 was over 8.77 µM. The IC50 (PBLUC_HILL_SLOPE 3.81, PBLUC_R_SQUARED 0.298, read-out: LUCIFERASE INFECTION ASSAY - IC50) amounted to 6.38 µM.

On to `Cc1nn(-c2ccccc2)c(C)c1C(=O)ONC(=N)c1cccc(Cl)c1`, for which the IC90 is over 8.95 µM. Besides, the IC50 (PBLUC_HILL_SLOPE 7.89, PBLUC_R_SQUARED 0.243, read-out: LUCIFERASE INFECTION ASSAY - IC50) stood at 7.68 µM.

For `O=C(Nc1ccc(Cl)cc1)O/N=C\c1ccc(C#Cc2ccccc2)cc1`, the IC90 is over 8.8 µM. The half-maximal inhibitory concentration (IC50) under setting [1] was over 8.8 µM.

As for `CCOc1cc(/C=C/C(=O)c2ccc3c(c2)OCCO3)cc(Br)c1OCC(=O)N(C)C`, the IC90 is 9.9 µM. Where the note is “PBLUC_HILL_SLOPE 4.45, PBLUC_R_SQUARED 0.571, read-out: LUCIFERASE INFECTION ASSAY - IC50”, the IC50 worked out at 6.04 µM.

As for `OCc1ccc(-c2cnc3cnc(-c4cccnc4)cn23)cc1`, the IC90 stood at 7.72 µM. For the same compound, the IC50 (PBLUC_HILL_SLOPE 5.76, PBLUC_R_SQUARED 0.27, read-out: LUCIFERASE INFECTION ASSAY - IC50) was found to be 5.27 µM.

For `COc1cc(C(=O)c2c(-c3ccccc3)cc3ccccn23)cc(OC)c1OC`, the IC90 was 0.409 µM. In addition, the IC50 (HEPG2TOX_HILL_SLOPE 0.582, HEPG2TOX_R_SQUARED 0.857, PBLUC_HILL_SLOPE 12.9, PBLUC_R_SQUARED 0.72, read-out: LUCIFERASE INFECTION ASSAY - IC50) came to 0.344 µM.

By IC50 is commonly meant the midpoint of a concentration-inhibition curve. One may read the IC90 as the concentration needed for an effect of 90%.
